Reference: patent US20050288185A1, “Substituted phenyluracils” (priority 2002, published 2005)

Legend:
[1] = system: weeds; assay: Pre-emergence test (Example A), activity against weeds; type: in vivo; conditions: soil sprayed 24 hours after sowing, rated after three weeks
From the text: (§1) Solvent: 5 parts by weight of acetone
(§2) Emulsifier: 1 part by weight of alkylaryl polyglycol ether
Seeds of the test plants are sown in normal soil.
(§3) After three weeks, the degree of damage to the plants is rated in % damage in comparison to the development of the untreated control.

[2] = log P determination by HPLC (reversed-phase C18), EEC Directive 79/831 Annex V.A8; type: physicochemical; conditions: reversed-phase C18 HPLC column; pH 2.3; HPLC reversed-phase C18, 43° C.
Description: The log P values given in the table were determined in accordance with EEC Directive 79/831 Annex V.A8 by HPLC (High Performance Liquid Chromatography) using a reversed-phase column (C 18). Temperature: 43° C. (a) Mobile phases for the determination in the acidic range: 0.1% aqueous phosphoric acetonitrile; linear gradient from 10% acetonitrile to 90% acetonitrile—the sponding measurement results in Table 1 are marked ^a). (b) Mobile phases for the determination in the neutral range: 0.01 molar aqueous phosphate buffer solution, acetonitrile; linear gradient from 10% acetonitrile to 90% acetonitrile—the corresponding measurement results in Table 1 are marked^b). Calibration was carried out using unbranched alkan-2-ones (with 3 to 16 carbon atoms) with known log P values (determination of the log P values by the retention times using linear interpolation between two successive alkanones).

[3] = system: weeds; assay: Post-emergence test (Example B), activity against weeds; type: in vivo; conditions: test plants 5-15 cm sprayed, rated after three weeks
From the text: as §1, §2, §3

Compound | activity against weeds (degree of damage) [1] | chromatographic logP [2] | activity against weeds (degree of damage) [3]
COC(=O)c1occc1COc1cc(-n2c(=O)cc(C(F)(F)F)n(C)c2=O)c(F)cc1Br [Example 2, methyl 3-[2-bromo-5-(2,6-dioxo-3-methyl-4-trifluoromethyl-3,6-dihydro-2H-pyrimidin-1-yl)-4-fluorophenoxymethyl]furan-2-carboxylate] | very strong activity against weeds | 3.34 | very strong activity against weeds
COC(=O)c1ccoc1COc1cc(-n2c(=O)cc(C(F)(F)F)n(N)c2=O)c(F)cc1Br [Example 3, methyl 2-[2-bromo-5-(3-amino-2,6-dioxo-4-trifluoromethyl-3,6-dihydro-2H-pyrimidin-1-yl)-4-fluorophenoxymethyl]furan-3-carboxylate] | very strong activity against weeds | 3 | very strong activity against weeds
